row,SMILES,melting point
1,O=c1c(Br)cn(-c2cccc(C(F)(F)F)c2)nc1-c1ccnn1-c1ccccc1,145 to 146 °C
2,COc1ccc(-c2ccc(Cl)c(C(=O)NCC34CC5CC(CC(C5)C3)C4)c2)c(C(=O)O)c1,219 to 221 °C
3,CCCCCCC(C)(C)c1ccc(C2=CC(O)CCC2)c(O)c1 (configuration not stated),87 to 88 °C
4,COC(=O)Cc1cccc(CNC(=O)C2Cc3ccccc3N2S(=O)(=O)c2ccc(-c3cccc(C(F)(F)F)c3)cc2)c1 (configuration not stated),60 °C
5,CC(=O)NCP(=O)(O)O,171 to 175 °C
6,CC(C)(C)CN1C(=O)C2CC2(c2ccc(N)cc2)C1=O (configuration not stated),118 to 119 °C
7,CCOC(=O)c1c(C)cc(C(=O)O)c(NC=O)c1C,144 to 146 °C
8,COC(=O)C1CCCn2c(=O)n(CCCl)c(=O)n21 (configuration not stated),94 to 95 °C
9,c1ccc2c(c1)nc1n2CCCC1,104 to 106 °C
10,CN1C(C(=O)OCCO)=C(O)c2ccccc2S1(=O)=O,122 to 123 °C
11,CCc1cc(C(=O)c2ccccc2Cl)c(-n2c(C)nnc2CNC(=O)Nc2cccc(CC(=O)OC(C)(C)C)c2)s1,178 to 179 °C
12,CNC(=O)N1CCN(C(=O)CN2CCCC2=O)CC1,203 to 205 °C
13,Cc1cc2c(N)c(C(=O)c3cc(F)ccc3F)sc2nc1C,188 °C
14,Clc1ccc(CNc2nc(Cl)cc(Cl)n2)cc1,154 to 157 °C
15,Cn1cnc2cc(NC(=O)c3cc4cc(F)ccc4n3Cc3cccc(F)c3)cnc21,235 to 236 °C
16,CCCCCCCCCCN1C(=O)C=CC1=O,48 to 49 °C
17,COc1cc(OC)cc(C(=O)CC(=O)c2ccc(O)cc2O)c1,267 to 268 °C
18,CCOC(=O)C1=C(C(F)(F)F)Nc2n[nH]cc2C1c1ccccc1OC (configuration not stated),144 to 146 °C
19,COCCOc1cc2c(cc1-c1ccccc1F)NC(=O)CC(c1cccc(C#N)c1)=N2,211 to 213 °C
20,C#Cc1ccc2c(c1)C(c1ccccn1)=NC(C)c1c(C(=O)OCC)ncn1-2 (configuration not stated),235 to 237 °C
21,CN1C(=O)C(NC(=O)Nc2ccc(F)cc2)C(=O)N(C23CC4CC(CC(C4)C2)C3)c2ccccc21 (configuration not stated),239 to 241 °C
22,NS(=O)(=O)c1ccc(-n2nc(C(F)(F)F)cc2-c2ccc(Cl)cc2Cl)cc1,153 to 155 °C
23,c1ccc(Cn2c3ccccc3c3ccccc32)cc1,121 to 122 °C
24,CCOC(=O)C(CCC(C)(C)c1cc(O)c(C(C)(C)CCC(C(=O)OCC)C(=O)OCC)cc1O)C(=O)OCC,157 to 160 °C
25,O=C(O)c1ccc(NCc2ccc(OCc3ccccc3)cc2)cc1,206 to 208 °C
26,COc1ccc2cccc(N3CCN(CCCCOc4ccc5c(n4)NC(=O)NCC5)CC3)c2c1,155 to 158 °C

row,SMILES,melting point
1,Fc1cccc2c1CN(NC1=NCCN1)C2,168 to 170 °C
2,COc1cccc(CC(=O)O)c1OCCCc1cn(-c2ncc(C(F)(F)F)cn2)nc1C(C)C,131 to 132 °C
3,CC1(C)CC(c2ccccn2)c2cc(C(=O)O)ccc2O1 (configuration not stated),207 to 208 °C
4,CC1(C)C(Cl)(Cl)C1(Cl)C(=O)O (configuration not stated),148 to 150 °C
5,O=C(CNC(=O)OCc1ccc([N+](=O)[O-])cc1)Oc1ccc(C(=O)OCI)cc1,146 to 148 °C
6,COc1ccc2[nH]c(SCc3nccc(N(C)C)n3)nc2c1,182 to 183 °C
7,O=C(Nc1cnc2c(c1)CCN2)c1cc2cc(F)ccc2n1Cc1cccc(F)c1,230 to 232 °C
8,c1ccc(C(CCOc2ccc(CCC3=NCCO3)cc2)(c2ccccc2)c2ccccc2)cc1,130 to 131 °C
9,COc1ccc(-c2ccc3c(n2)CCC(C)(C)C3=O)cc1,158 to 159 °C
10,O=C(CC(c1ccccc1)c1ccccc1)N1CCC(N2Cc3ccccc3C2=O)CC1,166 to 169 °C
11,COc1ccc(C(CN)C(CN)c2ccc(Cl)cc2)cc1 (configuration not stated),124 to 127 °C
12,CCOP(=O)(OCC)c1nc(N2CCCC2)nc(N2CCCC2)n1,65 to 69 °C
13,Cc1cccc(-c2n[nH]cc2-c2ccc(F)c(-c3csc(C(C)(C)O)n3)c2)n1,78 to 80 °C
14,CC(C)Cc1ccc(COc2ccc(CC(=O)O)cc2Cl)cc1,97 to 99 °C
15,Fc1cccc(Cl)c1-c1c(Cl)cc(-c2ncccn2)nc1Cl,147 °C
16,Oc1c(Br)c(Br)c(Cl)c(Br)c1Br,210 to 212 °C
17,CC(=O)c1cc(F)ccc1Oc1nc2ccc([N+](=O)[O-])cc2cc1Cc1ccccc1,132 to 133 °C
18,COc1cc2c(cc1OC)C(C#N)N(C(=O)c1ccccc1)C=C2 (configuration not stated),155 to 157 °C
19,N#Cc1ccc([C@H]2CC[C@H](CCC=O)CC2)cc1,30 °C
20,CNC(=O)ON=CC=NOC(C)=O,138 °C
21,O=C(NCCN1CCCCC1)c1ccc(-c2ccc3nnn(Cc4ccc5ncccc5c4)c3n2)cc1,104 to 107 °C
22,CC1(C)OC(=S)Nc2ccc(-c3cccc(F)c3)cc21,194 to 195 °C
23,O=C1C=C(c2ccc(OC(F)(F)F)cc2)CO1,122 to 123 °C
24,Cn1cc(-c2cccc(Br)c2)c(=O)c(-c2ccccc2Cl)c1,177 to 179 °C
25,COc1cc(OC)c2c(c1)C(C)(C)C1(C=Cc3cc([N+](=O)[O-])cc(OC)c3S1)N2C (configuration not stated),131 °C
26,CCN1CCCC(CC)(c2ccc(Nc3ncc4ccc(-c5ccccc5OC)n4n3)cc2)C1 (configuration not stated),69 to 78 °C

row,SMILES,melting point
1,COc1cc(NS(=O)(=O)c2ccc(N3CCNC3=O)cc2)cc(OC)c1,200 to 201 °C
2,CSc1nc(Cl)c(-c2c(F)cc(F)cc2F)c(NC(C)C)n1,112 to 116 °C
3,COCc1ncnc(N2CCCCC2)c1C,45 to 47 °C
4,CC(=O)NC(C=CCP(=O)(O)O)C(=O)O (configuration not stated),155 °C
5,CCCc1cc(C(=O)OCC)ccc1O,78 to 79 °C
6,CC(C)(C)C(O)(c1ccccc1)c1cc(Cl)ccc1O (configuration not stated),146 °C
7,COC(=O)CCC(=O)CBr,12 to 15 °C
8,COC(=O)C(C)Oc1ccc(Sc2cc(-n3nc(C)n(C(F)F)c3=O)c(Cl)cc2Cl)cc1 (configuration not stated),100 to 101 °C
9,CCCC(=O)c1cnc2ccc(O)cc2c1Nc1ccc(O)cc1C,242 to 244 °C
10,CC(=O)NCc1cc(Br)cc2[nH]c(=O)c(=O)[nH]c12,> 300 °C
11,COc1cc(OC)c(C)c(C(=O)OCC(Cl)(Cl)Cl)c1C,129 °C
12,O=C(c1ccc(F)cc1)c1ccc(C(c2ccc(C(=O)c3ccc(F)cc3)cc2)(C(F)(F)F)C(F)(F)F)cc1,142 to 143 °C
13,O=C(NC(=NCCCCc1cccnc1)NCCCc1c[nH]cn1)c1ccccc1,119 to 120 °C
14,CCc1cnc2c(NC(=O)c3c(Cl)cccc3Cl)cccc2c1CN1CCN(C)C1=O,202 to 203 °C
15,C=CC(=O)c1ccc(OCC(=O)O)c(Cl)c1Cl,111 to 113 °C
16,Nc1nc(N)nc(C23CC4CC(CC(C4)C2)C3)n1,261 to 262 °C
17,COc1cc2nc(C)nc(Cl)c2cc1OC,182 to 184 °C
18,Cn1cc(-c2cccc(C(F)(F)F)c2)c(=O)o1,132 to 134 °C
19,Cc1ccsc1C(=O)N1CCC(Sc2ccc(CCNC[C@H](O)COc3ccc(O)cc3)cc2)CC1,135 to 144 °C
20,CCCC(=O)C1=C(O)CC(c2c(C)c(C)c3c(c2C)CC(C)(C)O3)CC1=O (configuration not stated),83 °C
21,N#CNC(=NCCO[N+](=O)[O-])c1cncc(N)c1,121 °C
22,FC(F)(F)c1cccc(C2=CCN(CCc3ccc4[nH]ccc4c3)CC2)c1,122 to 123 °C
23,CN1CCN(CCCN2N=C3C(=Cc4ccccc4)CSCC3C2c2ccccc2)CC1 (configuration not stated),90.5 to 92.5 °C
24,O=c1cc(-c2ccc3[nH]ncc3c2)oc2ncc(CN3CCOCC3)cc12,293 °C
25,CC(=O)c1nc(-c2ccccn2)[nH]c1C,145 to 147 °C
26,COc1ccc(-c2ccc3c(c2)S(=O)(=O)NC(C2CCCCC2)N3)c(OC)c1 (configuration not stated),208 to 213 °C

row,SMILES,melting point
1,NS(=O)(=O)c1ncccc1NC=O,183 °C
2,CC(=O)Nc1cnc(N2CCN(CCCC(=O)c3ccc(F)cc3)CC2)cc1NC(C)=O,206 to 209 °C
3,CON=C(C(C)=NN)c1ccccc1,132 °C
4,O=C(c1ccccc1)c1ccc2cc[nH]c2n1,174 °C
5,Cc1cccc(-c2cc(O)c(Sc3ccccc3C(C)C)c(=O)o2)c1,161 to 162 °C
6,C#CCCCCCC(=O)Nc1nc2nn(C)cc2c2nc(-c3ccco3)nn12,204 to 208 °C
7,Oc1ccc(-c2cc3cc(F)ccc3o2)cc1,202 to 204 °C
8,CCCCOCCN(CCCCCSc1nc(-c2ccccc2)c(-c2ccccc2)[nH]1)C(=O)Nc1ccc(F)cc1F,69 to 71 °C
9,CCCCCCCCCCCCCCCc1cccc(OCC#CC(=O)C(F)(F)F)c1,35 to 36 °C
10,Cc1ccc(-c2ccc(C(=O)Nc3ccc4nc(CN5C(C)(C)CCCC5(C)C)ccc4c3)cc2)cc1,242 to 243 °C
11,CCc1nn2c(N)cc(C)nc2c1S(=O)(=O)c1ccc(OC)cc1,186 to 188 °C
12,CCOC(=O)c1cc2c(OCc3ccccc3)cc(C)cc2[nH]1,167 to 168 °C
13,Cc1nnc2n1-c1sc(CCc3ccc(CC(C)C)cc3)cc1C(c1ccccc1Cl)=NC2c1ccccc1 (configuration not stated),170 to 172 °C
14,CC(=O)c1cccc(NC(=O)C2CCC2)c1,155 to 157 °C
15,CCCCOc1ccc(C(=O)Nc2ccc3cc(CN4CCCC4C)cnc3c2C)cc1 (configuration not stated),153 to 156 °C
16,Fc1ccc(Nc2ncnc3cnc(N4CCC(N5CCOCC5)CC4)nc23)cc1Cl,222 to 224 °C
17,O=c1[nH]c(=O)n(C2CC2)c2c(OC(F)F)c(F)ccc12,215 to 221 °C
18,CCOC(=O)c1ccc(N=C(Nc2ccc(C(=O)OCC)cc2)c2ccc([N+](=O)[O-])cc2)cc1,202 to 205 °C
19,Cc1nc(C)c(Cl)c(NCc2nccc(SCCCCSCCn3c([N+](=O)[O-])cnc3C)c2C)n1,142 to 144 °C
20,Cc1ccc(OCCCl)c(C(N)=O)c1,111 to 113 °C
21,CCCC1(COC)CCCSc2cc(/C=C/c3ccc(C(=O)O)cc3)ccc21 (configuration not stated),169 to 170 °C
22,NP(N)(=S)N1CCCC1,95 to 99 °C
23,O=C1CCc2sccc21,87 to 88 °C
24,CC(Cc1c[nH]c2ccccc12)NC(=O)C=C1CCC(c2ccccc2)(N(C)C)CC1 (configuration not stated),184 to 187 °C

# From a melting point compilation (Tetko et al.; mined from patent text by program, amines drawn as free bases though some values may be those of a salt)
